The source of these data is patent US11213494B2 (priority 2016, dated 2022).

Each structure is given as a SMILES string.

The test system of data set [1] is Fos expression in the forebrain (piriform cortex). In words: Fos immunostaining 90 min after ketamine injection, count of Fos-positive cells. In kind it is in vivo, mice. As to conditions: for number of Fos-positive cells in the piriform cortex: 90 min after injection.
Experimental: Three- and 6-week-old male mice, or 11-week-old female mice, were deeply anesthetized by inhalation of isoflurane and perfused transcardially with PBS followed by ice-cold 4% paraformaldehyde in 0.1Mphosphate buffer, pH7.4, within 10 min. […] Brains were postfixed in 4% paraformaldehyde for 2.5 h, cryoprotected in 25% sucrose overnight, then frozen in 2-methylbutane at −45° C. and stored at −80° C. Coronal sections were cut at 40 μm with a cryostat microtome (Jung Frigocut 2800 N) and stored in PBS at 4° C.
Free-floating 40 μm sections were processed for Fos immunostaining by blocking with 10% goat serum in dilution buffer (PBS, BSA, 0.3% Triton X-100) for 1.5 h and then incubated overnight at room temperature (20±2 h) in rabbit polyclonal anti-c-Fos primary antibody (1:3000, Calbiochem) in dilution buffer plus 10% goat serum. After sequential rinse steps in dilution buffer and PBS, sections were incubated in biotinylated goat anti-rabbit IgG secondary antibody (1:400, Vector Labs) in dilution buffer plus 15% goat serum for 1 h. After rinsing in PBS, sections were incubated in avidin and biotinylated horseradish peroxidase complex (ABC, 1:150, Vector Labs). Finally, sections were developed using the Sigma Fast diaminobenzidine and urea hydrogen peroxide set, mounted on Super Frost Plus slides and coverslipped using VectaShield (Vector Labs).
Animals were administered ketamine (8, 20, or 100 mg/kg, i.p.) or an equivalent volume of saline and then returned to their home cage for 90 min. Subsequently, the animals were deeply anesthetized by inhalation of isoflurane, perfused transcardially, and processed for Fos staining as described above.
Sections were visualized and photographed using an AxioSkop2 microscope (Zeiss) equipped with a Quantifire XI microscope camera (Optronics). Fos positive cells were counted using point by-point analysis with Neurolucida software (MBF Bioscience). Before analysis, the photomicrographs were coded so that the observers were blinded to the genotype. Cells were counted in every third section through the nTS, and in a representative subset of sections through the other brain regions analyzed. All sections were analyzed twice by two independent and blinded observers, and respective counts were averaged. The nTS was sampled at 12 levels through the rostro-caudal extent of the nucleus and the average counts at each level were then added together to estimate the total number of labeled cells per animal. To define genotype effects on Fos expression, G*Power 3 power analysis software was used to determine group sizes.
Data set [2] concerns RTT mice (Mecp2Jae females). Nature of the data set: Intermittent very low dose ketamine regimen with plethysmography. The settings on record: 3 mg/kg once every 3 days for two weeks, measured 24 hours after the last injection. In kind it is in vivo. As to the method: FIG. 14 illustrates a very low dose ketamine (3 mg/kg) dosing regimen for the treatment of RTT in miceMecp2Jae OC females treated once every 72 hours for two weeks (saline or Ketamine 3 mg/kg) with plethysmography measurement 24 hours after the last injection.
This Example evaluated a ketamine dosing regimen for the treatment of Rett syndrome. […] These effects are consistent with the ability of ketamine to increase activity in cortical pyramidal cells by selectively inhibiting cortical inhibitory interneurons.

For another data set, the system named is Mecp2 Het mice. Nature of the data set: Prepulse inhibition (PPI) of the acoustic startle response. The data set is classed as in vivo. The settings on record: ketamine 8 mg/kg; for % PPI 73 dB: prepulse 73 dB; for % PPI 76 dB: prepulse 76 dB; for % PPI 82 dB: prepulse 82 dB. On the procedure:
Prepulse inhibition (PPI) of the acoustic startle response (ASR) was measured to assess sensorimotor gating function using Med Associates Startle Response recording system. Mice were divided into four groups (Het ketamine, Het vehicle, Wt ketamine, Wt vehicle), and received injections of either ketamine (8 mg/kg) or an equivalent amount of saline immediately before they were placed individually inside a small-sized, nonrestrictive, cubical Plexiglas recording chamber [2.5 inches (L)×2.5 inches (W)×1.75 inches (H)] fixed on an accelerometer platform and allowed to acclimate for 5 min. Subsequently, the mouse was exposed to 4 testing blocks. In the first testing block, the initial startle response amplitude was determined by delivering a 40 ms pulse of 120 dB broadband white noise and recording the maximum startle amplitude (Vmax). A baseline startle response was determined by repeating this recording paradigm for six consecutive trials (with 8-23 s between each stimulus) and calculating the average Vmax measured in those trials. In the second and third testing blocks, the mice were exposed to a series of “pulse-only” or “prepulse-pulse pair” stimuli to determine the effect that a reduced intensity prepulse had on the acoustic startle response. The pulse-only stimulus consisted of an 80 ms stimulus of 120 dB. The prepulse-pulse pair trials were conducted by delivering a single 20 ms prepulse, with an intensity of 73, 76 or 82 dB before an 80 ms stimulus with an intensity of 120 dB. An average delay of 15 s (8-23 s) occurred between each stimulus. Each prepulse-pulse pair trial was repeated 10 times, pulse only trials were repeated 12 times. The Vmax measured from each prepulse-pulse trial was compared with the Vmax measured from the 120 dB pulse-only trials, and a percentage prepulse inhibition (% PPI) was calculated for each prepulse intensity. In the fourth testing block, startle response Vmax was recorded from 6 additional 40 ms pulses of 120 dB broadband white noise (with 8-23 s between each stimulus) and compared with the baseline startle response from the first testing block to eliminate the possibility of habituation to the acoustic stimulus throughout the test.

The conditions of data set [3]: in vivo; cited from earlier work.

With `CNC1(c2ccccc2Cl)CCCCC1=O` (stereo not drawn) [ketamine], the “number of Fos-positive cells in the piriform cortex” value is listed as 83.2±18.2 cells in data set [1] (Null mice, ketamine 20 mg/kg i.p.); 116.3±26.4 cells in data set [1] (Null mice, ketamine 100 mg/kg i.p.); 119.3±17.2 cells in data set [1] (Wt mice, ketamine 100 mg/kg i.p.). The “increase in the number of Fos-positive cells” value in data set [1] (Wt mice, ketamine 100 mg/kg, piriform cortex) was determined as 20%. Further, in data set [2], the apneic breathing result is listed as “complete elimination”. Further, the results for the “% PPI 73 dB” value in the data set with Mecp2 Het mice (Het mice) and in the data set on Mecp2 Het mice (Wt mice) were 5.3±5.8% and 7.8±4.1%, respectively. Besides, the “% PPI 76 dB” value was found to be 17.8±2.9% in the data set on Mecp2 Het mice (Het mice) and 12.8±4.8% in the data set with Mecp2 Het mice (Wt mice). The “% PPI 82 dB” value in the data set on Mecp2 Het mice (Het mice) is 21.4±6.4%; in the data set on Mecp2 Het mice (Wt mice), 24.1±5.8%. Moreover, in data set [3], the half-life entry is listed as “less than 1 hour”.
